# Measurements published in patent US9920013B2, “2,5-dioxoimidazolidin-1-yl-3-urea derivatives as formyl peptide modulators” (Allergan, Inc., priority 2014, dated 2018).
# Target: T1, FPR2 (Homo sapiens, UniProt P25090)
# T1 construct: expressed in transfected cells
# T1 sequence (P25090 1-351): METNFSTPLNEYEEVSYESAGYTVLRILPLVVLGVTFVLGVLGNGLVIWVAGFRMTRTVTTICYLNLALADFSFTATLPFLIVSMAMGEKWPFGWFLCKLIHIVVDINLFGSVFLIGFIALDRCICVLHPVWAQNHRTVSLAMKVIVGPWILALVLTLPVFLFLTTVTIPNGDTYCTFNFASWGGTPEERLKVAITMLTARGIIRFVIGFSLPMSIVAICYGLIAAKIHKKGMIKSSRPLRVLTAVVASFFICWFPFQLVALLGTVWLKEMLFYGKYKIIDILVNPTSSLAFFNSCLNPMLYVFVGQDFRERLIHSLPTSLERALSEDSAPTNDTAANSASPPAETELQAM
# Assay: FPR2 calcium activity assay on FLIPR Tetra in CHO-Gα16 cells stably expressing FPR2
# Type: cell-based
# Settings: for EC50: compound-induced calcium activity, 0.61 to 10,000 nM
# Method: CHO-Gα16 cells stably expressing FPR2 were cultured in F12 media (10% FBS, 1% PSA, 400 μg/ml geneticin and 50 μg/ml hygromycin). In general, the day before the experiment, 18,000 cells/well were plated in a 384-well clear bottom poly-D-lysine coated plate. The following day the screening compound-induced calcium activity was assayed on a FLIPR^Tetra. The drug plates were prepared in 384-well microplates using EP3 and MultiPROBE robotic liquid handling systems. Compounds were tested at concentrations ranging from 0.61 to 10,000 nM. Results are expressed as EC50 (nM) and % efficacy values.
FPR2 Gα16-CHO (%eff),EC50 [nM],SMILES
(0.97),10,"CC(=O)OCCNC(=O)CC1(C(C)C)NC(=O)N(NC(=O)Nc2ccc(Br)cc2)C1=O (stereo not drawn) [Compound 3, 2-({[1-{[(4-Bromophenyl)carbamoyl]amino}-2,5-Dioxo-4-(propan-2-yl)imidazolidin-4-yl]acetyl}amino)ethyl acetate]"
(0.94),4,"CC(=O)OCCNC(=O)CC1(C(C)C)NC(=O)N(NC(=O)Nc2ccc(Br)cc2F)C1=O (stereo not drawn) [Compound 2, 2-({[1-{[(4-Bromo-2-Fluorophenyl)carbamoyl]amino}-2,5-dioxo-4-(propan-2-yl)imidazolidin-4-yl]acetyl}amino)ethyl acetate]"
(0.94),6,"CC(=O)NCCNC(=O)CC1(C(C)C)NC(=O)N(NC(=O)Nc2ccc(Br)cc2)C1=O (stereo not drawn) [Compound 1, N-[2-(Acetylamino)ethyl]-2-[1-{[(4-Bromophenyl)carbamoyl]amino}-2,5-dioxo-4-(propan-2-yl)imidazolidin-4-yl]acetamide]"
